# Experimental data as given in US12599597B2, “Substituted N-benzhydrylacetamide inhibitors of jumanji domain histone demethylases for the treatment of cancer” (University of Kentucky Research Foundation, priority 2020, dated 2026).
# Molecular target: T1, JMJD2A (KDM4A) (Homo sapiens, UniProt O75164)
# T1 sequence (O75164 1-1064): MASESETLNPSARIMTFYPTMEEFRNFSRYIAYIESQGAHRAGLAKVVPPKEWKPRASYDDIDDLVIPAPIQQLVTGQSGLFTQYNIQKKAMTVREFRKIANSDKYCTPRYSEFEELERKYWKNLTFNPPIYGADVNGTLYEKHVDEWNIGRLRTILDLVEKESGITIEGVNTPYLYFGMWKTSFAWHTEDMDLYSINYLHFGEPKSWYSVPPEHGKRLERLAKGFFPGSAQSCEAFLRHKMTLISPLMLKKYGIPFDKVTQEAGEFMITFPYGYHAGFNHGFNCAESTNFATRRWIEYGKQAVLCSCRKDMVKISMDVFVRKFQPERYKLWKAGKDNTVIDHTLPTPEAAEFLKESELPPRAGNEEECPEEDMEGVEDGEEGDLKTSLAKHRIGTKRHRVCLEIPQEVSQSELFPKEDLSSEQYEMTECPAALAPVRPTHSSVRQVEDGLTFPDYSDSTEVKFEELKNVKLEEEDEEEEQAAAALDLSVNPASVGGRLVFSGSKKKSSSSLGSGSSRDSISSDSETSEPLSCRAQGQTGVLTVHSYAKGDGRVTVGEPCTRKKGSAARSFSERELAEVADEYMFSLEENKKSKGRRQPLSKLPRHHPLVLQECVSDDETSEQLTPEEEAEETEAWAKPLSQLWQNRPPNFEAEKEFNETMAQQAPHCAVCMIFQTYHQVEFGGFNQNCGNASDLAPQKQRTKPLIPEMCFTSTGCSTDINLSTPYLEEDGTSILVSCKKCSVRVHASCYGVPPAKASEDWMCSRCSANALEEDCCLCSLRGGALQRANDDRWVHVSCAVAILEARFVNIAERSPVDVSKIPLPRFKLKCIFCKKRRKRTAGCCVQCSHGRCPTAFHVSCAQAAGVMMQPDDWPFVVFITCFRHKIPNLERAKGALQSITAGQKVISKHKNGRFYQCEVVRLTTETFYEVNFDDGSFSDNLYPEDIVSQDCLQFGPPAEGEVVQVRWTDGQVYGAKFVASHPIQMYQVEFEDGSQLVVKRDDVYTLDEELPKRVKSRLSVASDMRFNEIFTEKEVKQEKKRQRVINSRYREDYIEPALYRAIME
# Experiment: Histone demethylase assay, purified enzyme panel
# Format: biochemical
# Conditions: 58B1, 10 μM
# Description: Histone Demethylase Assay
# To further examine the effects of 58B1 on histone demethylase, we screened a panel of purified histone demethylases was screened.
smiles,measurement,value
CCCC(=O)NC(c1ccc(N(CC)CC)cc1)c1cc(Cl)c2cccnc2c1O (stereo not shown) [58B1],inhibition at 10 µM,64%
